In ChEMBL document CHEMBL3886473, “Compounds that are ERK inhibitors” (2016):

Target: Mitogen-activated protein kinase 1 (Homo sapiens, UniProt P28482)
Assay: IMAP-FP Assay: Activated ERK2 activity was determined in an IMAP-FP assay (Molecular Devices).

Sequence of Mitogen-activated protein kinase 1 (P28482 whole entry): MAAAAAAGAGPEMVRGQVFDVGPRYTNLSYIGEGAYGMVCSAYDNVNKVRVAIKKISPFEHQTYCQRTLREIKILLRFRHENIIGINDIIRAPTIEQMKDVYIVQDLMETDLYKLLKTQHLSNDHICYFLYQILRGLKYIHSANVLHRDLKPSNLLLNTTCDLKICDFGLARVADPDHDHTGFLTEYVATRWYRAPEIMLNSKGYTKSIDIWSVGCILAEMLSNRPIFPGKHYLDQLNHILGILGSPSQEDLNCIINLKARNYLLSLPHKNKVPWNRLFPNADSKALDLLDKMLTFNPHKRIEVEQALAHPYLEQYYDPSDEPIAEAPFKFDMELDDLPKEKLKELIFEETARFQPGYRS

## COC(=O)Nc1n[nH]c2cc(NC(=O)N[C@H](C)c3ccc(Cl)c(OC)c3)ncc12
  IC50: 5.2 nM
